Results: patent US8691865B2 (AbbVie Inc., priority 2008, dated 2014)

target: human Cav2.2 (Homo sapiens, UniProt Q00975); test: Assessment of calcium channel activity using FLIPR (Ca2+ influx in IMR32 cells); assay type: cell-based; settings: not given
Summary of the method: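 IC50 values derive from nonlinear sigmoidal fitting of percent inhibition, relative to inhibitor-free activity, of Ca2+ influx read by FLIPR. Cells were IMR32 human neuroblastoma, plated at 1−1.2×10^5 per well and grown 48 h at 37 °C.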

Chain of human Cav2.2 (Q00975 whole entry): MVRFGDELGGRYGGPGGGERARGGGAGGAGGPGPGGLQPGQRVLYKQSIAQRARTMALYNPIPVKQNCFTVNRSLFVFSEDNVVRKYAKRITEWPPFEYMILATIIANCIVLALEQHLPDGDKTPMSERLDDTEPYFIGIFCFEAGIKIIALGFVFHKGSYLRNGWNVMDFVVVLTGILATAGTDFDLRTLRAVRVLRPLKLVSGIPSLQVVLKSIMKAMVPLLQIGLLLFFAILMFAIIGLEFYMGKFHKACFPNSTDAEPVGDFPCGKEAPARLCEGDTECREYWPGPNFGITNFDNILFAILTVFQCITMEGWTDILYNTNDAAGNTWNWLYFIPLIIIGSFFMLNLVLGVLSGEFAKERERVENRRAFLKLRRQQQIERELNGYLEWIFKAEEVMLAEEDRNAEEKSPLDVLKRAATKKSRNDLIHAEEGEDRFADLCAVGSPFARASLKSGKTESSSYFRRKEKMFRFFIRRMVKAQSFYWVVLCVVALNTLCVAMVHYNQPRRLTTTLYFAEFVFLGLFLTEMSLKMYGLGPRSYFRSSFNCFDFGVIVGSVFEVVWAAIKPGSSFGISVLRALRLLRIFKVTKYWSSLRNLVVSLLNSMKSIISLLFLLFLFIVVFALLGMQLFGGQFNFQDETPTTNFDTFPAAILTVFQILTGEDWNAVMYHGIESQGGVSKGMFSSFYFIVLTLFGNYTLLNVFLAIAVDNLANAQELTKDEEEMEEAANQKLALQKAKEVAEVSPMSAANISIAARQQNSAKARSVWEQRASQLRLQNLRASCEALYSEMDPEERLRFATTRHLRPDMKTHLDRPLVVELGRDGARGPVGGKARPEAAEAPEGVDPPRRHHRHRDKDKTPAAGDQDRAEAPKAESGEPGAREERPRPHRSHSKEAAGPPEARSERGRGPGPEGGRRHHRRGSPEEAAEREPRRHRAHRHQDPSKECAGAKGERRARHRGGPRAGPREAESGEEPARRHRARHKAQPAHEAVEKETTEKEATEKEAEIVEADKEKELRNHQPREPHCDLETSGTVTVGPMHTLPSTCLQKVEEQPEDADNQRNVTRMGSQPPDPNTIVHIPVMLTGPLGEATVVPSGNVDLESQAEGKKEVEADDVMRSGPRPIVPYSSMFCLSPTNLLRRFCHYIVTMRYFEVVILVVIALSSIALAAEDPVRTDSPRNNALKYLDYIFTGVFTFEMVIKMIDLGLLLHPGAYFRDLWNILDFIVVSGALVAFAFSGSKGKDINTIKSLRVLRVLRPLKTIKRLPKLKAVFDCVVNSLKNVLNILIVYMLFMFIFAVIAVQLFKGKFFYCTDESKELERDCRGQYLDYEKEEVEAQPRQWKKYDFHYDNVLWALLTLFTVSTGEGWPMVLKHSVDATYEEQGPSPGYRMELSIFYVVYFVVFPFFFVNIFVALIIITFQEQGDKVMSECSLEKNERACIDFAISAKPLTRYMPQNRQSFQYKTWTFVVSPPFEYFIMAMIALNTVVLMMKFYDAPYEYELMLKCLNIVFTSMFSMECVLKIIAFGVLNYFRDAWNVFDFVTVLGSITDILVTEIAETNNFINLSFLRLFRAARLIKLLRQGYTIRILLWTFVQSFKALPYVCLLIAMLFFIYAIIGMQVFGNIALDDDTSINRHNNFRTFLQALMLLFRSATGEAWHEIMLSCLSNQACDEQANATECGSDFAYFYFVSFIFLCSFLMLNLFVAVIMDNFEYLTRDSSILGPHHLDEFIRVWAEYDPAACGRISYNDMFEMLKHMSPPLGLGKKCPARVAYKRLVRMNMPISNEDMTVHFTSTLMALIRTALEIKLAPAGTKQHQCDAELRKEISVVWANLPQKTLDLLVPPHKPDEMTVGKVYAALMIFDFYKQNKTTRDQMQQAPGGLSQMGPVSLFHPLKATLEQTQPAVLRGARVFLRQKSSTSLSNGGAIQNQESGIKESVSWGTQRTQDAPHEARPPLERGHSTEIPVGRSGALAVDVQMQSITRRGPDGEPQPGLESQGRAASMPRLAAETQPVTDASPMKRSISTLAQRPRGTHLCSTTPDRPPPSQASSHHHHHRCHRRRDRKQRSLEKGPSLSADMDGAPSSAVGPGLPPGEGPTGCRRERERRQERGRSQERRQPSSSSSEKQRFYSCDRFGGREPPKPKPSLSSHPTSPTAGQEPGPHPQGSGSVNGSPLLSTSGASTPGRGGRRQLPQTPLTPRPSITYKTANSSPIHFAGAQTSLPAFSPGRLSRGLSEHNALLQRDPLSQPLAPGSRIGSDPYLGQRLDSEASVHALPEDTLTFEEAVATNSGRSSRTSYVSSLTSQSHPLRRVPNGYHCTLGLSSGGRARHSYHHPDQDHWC
Chain of human Cav2.2 (P54289 25-956 partner limits assumed): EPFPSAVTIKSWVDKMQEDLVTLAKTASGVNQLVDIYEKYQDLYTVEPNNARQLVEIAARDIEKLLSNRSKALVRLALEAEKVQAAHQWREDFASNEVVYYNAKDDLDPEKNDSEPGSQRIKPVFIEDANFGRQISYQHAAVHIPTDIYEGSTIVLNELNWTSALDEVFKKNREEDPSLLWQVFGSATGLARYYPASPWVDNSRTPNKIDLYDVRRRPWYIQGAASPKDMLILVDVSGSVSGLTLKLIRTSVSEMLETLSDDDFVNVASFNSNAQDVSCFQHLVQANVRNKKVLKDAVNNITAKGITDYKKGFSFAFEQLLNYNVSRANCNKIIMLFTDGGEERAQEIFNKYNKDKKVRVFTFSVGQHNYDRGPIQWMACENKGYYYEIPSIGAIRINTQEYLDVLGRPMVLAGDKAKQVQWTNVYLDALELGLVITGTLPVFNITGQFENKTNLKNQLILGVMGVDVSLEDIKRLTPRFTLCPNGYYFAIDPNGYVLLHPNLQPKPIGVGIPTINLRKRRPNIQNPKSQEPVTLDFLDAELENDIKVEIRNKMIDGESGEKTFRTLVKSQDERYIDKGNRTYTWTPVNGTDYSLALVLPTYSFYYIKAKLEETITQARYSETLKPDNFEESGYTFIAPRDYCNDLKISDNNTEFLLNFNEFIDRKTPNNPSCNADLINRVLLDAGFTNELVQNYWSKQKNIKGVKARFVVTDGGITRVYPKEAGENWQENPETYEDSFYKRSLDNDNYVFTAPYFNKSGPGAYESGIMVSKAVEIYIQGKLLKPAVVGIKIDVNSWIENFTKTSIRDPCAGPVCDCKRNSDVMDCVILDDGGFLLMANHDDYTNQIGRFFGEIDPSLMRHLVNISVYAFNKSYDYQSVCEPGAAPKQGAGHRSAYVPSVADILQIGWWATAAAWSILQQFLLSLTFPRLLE
Chain of human Cav2.2 (P54289 957-1103 partner limits assumed): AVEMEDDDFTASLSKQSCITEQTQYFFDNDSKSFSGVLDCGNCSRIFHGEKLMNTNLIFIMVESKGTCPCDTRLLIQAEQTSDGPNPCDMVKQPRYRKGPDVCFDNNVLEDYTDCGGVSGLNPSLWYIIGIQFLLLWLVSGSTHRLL
Chain of human Cav2.2 (P54284 whole entry partner): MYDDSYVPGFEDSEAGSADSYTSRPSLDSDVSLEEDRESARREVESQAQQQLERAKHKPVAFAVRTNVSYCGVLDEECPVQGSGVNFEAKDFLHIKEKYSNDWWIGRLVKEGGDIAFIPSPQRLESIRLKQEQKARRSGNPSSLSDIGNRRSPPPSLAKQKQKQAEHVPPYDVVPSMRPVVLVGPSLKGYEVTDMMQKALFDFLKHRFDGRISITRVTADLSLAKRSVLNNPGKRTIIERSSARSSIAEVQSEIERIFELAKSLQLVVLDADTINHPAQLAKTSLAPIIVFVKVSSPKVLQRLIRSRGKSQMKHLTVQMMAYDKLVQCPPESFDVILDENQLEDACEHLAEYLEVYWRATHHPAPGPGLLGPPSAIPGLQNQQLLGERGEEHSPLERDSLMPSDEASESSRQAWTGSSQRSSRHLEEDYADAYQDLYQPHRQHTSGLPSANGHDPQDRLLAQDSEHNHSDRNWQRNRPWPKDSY

| IC50 [µM] | Compound |
| --- | --- |
| 8.5 | O=C(N[C@H]1CC[C@@H]2CN(c3ccc(Cl)cc3)C[C@@H]21)[C@@H]1C[C@@H](F)CN1 [Example 644, (4R)-N-[(3aR,4S,6aS)-2-(4-chlorophenyl)octahydrocyclopenta[c]pyrrol-4-yl]-4-fluoro-L-prolinamide] |
| 1.53 | Cc1cccc2c(CN[C@H]3CC[C@@H]4CN(c5cccc(C(F)(F)F)n5)C[C@@H]43)c[nH]c12 [Example 671, (3aR,4S,6aS)-N-[(7-methyl-1H-indol-3-yl)methyl]-2-[6-(trifluoromethyl)pyridin-2-yl]octahydrocyclopenta[c]pyrrol-4-amine] |
| 0.56 | FC(F)(F)c1cccc(N2C[C@H]3CC[C@H](NCc4ccc5nsnc5c4)[C@H]3C2)n1 [Example 732, (3aR,4S,6aS)-N-(2,1,3-benzothiadiazol-5-ylmethyl)-2-[6-(trifluoromethyl)pyridin-2-yl]octahydrocyclopenta[c]pyrrol-4-amine] |
| 0.61 | O=C(N[C@H]1CC[C@@H]2CN(c3cccc(C(F)(F)F)n3)C[C@@H]21)c1cc2ccccc2[nH]1 [Example 570, N-{(3aR,4S,6aS)-2-[6-(trifluoromethyl)pyridin-2-yl]octahydrocyclopenta[c]pyrrol-4-yl}-1H-indole-2-carboxamide] |
| 2.77 | CN[C@@H](CC1CC1)C(=O)N[C@H]1CC[C@@H]2CN(c3ccc(OC(F)(F)F)cc3)C[C@@H]21 [Example 775, 3-cyclopropyl-N^2-methyl-N-{(3aR,4S,6aS)-2-[4-(trifluoromethoxy)phenyl]octahydrocyclopenta[c]pyrrol-4-yl}-L-alaninamide] |
| 1.12 | O=C(N[C@H]1CC[C@@H]2CN(c3cccc(C(F)(F)F)n3)C[C@@H]21)c1cc(C2CC2)n[nH]1 [Example 583, 3-cyclopropyl-N-{(3aR,4S,6aS)-2-[6-(trifluoromethyl)pyridin-2-yl]octahydrocyclopenta[c]pyrrol-4-yl}-1H-pyrazole-5-carboxamide] |
| 1.79 | N[C@@H](CC1CCCCC1)C(=O)N[C@H]1CC[C@@H]2CN(S(=O)(=O)c3ccc(C(F)(F)F)cc3)C[C@@H]21 [Example 426, 3-cyclohexyl-N^1-((3aR,4S,6aS)-2-{[4-(trifluoromethyl)phenyl]sulfonyl}octahydrocyclopenta[c]pyrrol-4-yl)-L-alaninamide] |
| 1.06 | O=C(N[C@@H]1CC[C@@H]2CN(Cc3ccccc3)C[C@@H]21)C(c1ccccc1)C1CCCCC1 (relative stereo) [Example 3, N-[(3aR*,4R*,6aS*)-2-benzyloctahydrocyclopenta[c]pyrrol-4-yl]-2-cyclohexyl-2-phenylacetamide] |
| 2.06 | O=C(N[C@H]1CC[C@@H]2CN(c3cccc(C(F)(F)F)n3)C[C@@H]21)[C@H]1CC[C@@H](O)CC1 [Example 584, cis-4-hydroxy-N-{(3aR,4S,6aS)-2-[6-(trifluoromethyl)pyridin-2-yl]octahydrocyclopenta[c]pyrrol-4-yl}cyclohexanecarboxamide] |
| 3.49 | CCC[C@@H](C(=O)N[C@H]1CC[C@@H]2CN(S(=O)(=O)c3cccs3)C[C@@H]21)N(C)C(=O)OC(C)(C)C [Example 531, tert-butyl methyl((S)-1-oxo-1-((3aR,4S,6aS)-2-(thiophen-2-ylsulfonyl)octahydrocyclopenta[c]pyrrol-4-ylamino)pentan-2-yl)carbamate] |
| 1.31 | CN[C@@H](CC(C)(C)C)C(=O)N[C@H]1CC[C@@H]2CN(S(=O)(=O)c3ccc(C(F)(F)F)cc3)C[C@@H]21 [Example 415, N^2,4-dimethyl-N^1-((3aR,4S,6aS)-2-{[4-(trifluoromethyl)phenyl]sulfonyl}octahydrocyclopenta[c]pyrrol-4-yl)-L-leucinamide] |
| 1.08 | CN[C@@H](CC(C)C)C(=O)N[C@H]1CC[C@@H]2CN(c3ccc(F)c(OC(F)(F)F)c3)C[C@@H]21 [Example 772, N-{(3aR,4S,6aS)-2-[4-fluoro-3-(trifluoromethoxy)phenyl]octahydrocyclopenta[c]pyrrol-4-yl}-N^2-methyl-L-leucinamide] |
| 0.63 | CN[C@@H](CC(C)C)C(=O)N[C@H]1CC[C@@H]2CN(c3ccccc3C(F)(F)F)C[C@@H]21 [Example 618, N^2-methyl-N-{(3aR,4S,6aS)-2-[2-(trifluoromethyl)phenyl]octahydrocyclopenta[c]pyrrol-4-yl}-L-leucinamide] |
| 1.21 | Fc1ccc(-c2c[nH]c(CN[C@H]3CC[C@@H]4CN(c5cccc(C(F)(F)F)n5)C[C@@H]43)n2)cc1 [Example 744, (3aR,4S,6aS)-N-{[4-(4-fluorophenyl)-1H-imidazol-2-yl]methyl}-2-[6-(trifluoromethyl)pyridin-2-yl]octahydrocyclopenta[c]pyrrol-4-amine] |

| Compound | IC50 [µM] |
| --- | --- |
| CC(C)(C)C[C@H](NC(=O)OC(C)(C)C)C(=O)N[C@H]1CC[C@@H]2CN(C(=O)[C@H](CC(C)(C)C)NC(=O)OC(C)(C)C)C[C@@H]21 [Example 463, tert-butyl(S)-1-((3aR,4S,6aS)-4-((S)-2-(tert-butoxycarbonylamino)-4,4-dimethylpentanamido)hexahydrocyclopenta[c]pyrrol-2(1H)-yl)-4,4-dimethyl-1-oxopentan-2-ylcarbamate] | 2.03 |

same assay, conditions: read-out: IC50 (μM) or percent inhibition (* indicates 3 minute incubation, otherwise 60 minute); IC50; 60 minute pre-incubation with compound; IMR32 cells, 80 mM KCl depolarization

| IC50 [µM] | Compound |
| --- | --- |
| 4.55 | CC(C)C[C@@H](C(=O)N[C@H]1CC[C@H]2CN(Cc3cccc(C(F)(F)F)c3)C[C@H]21)N(C)C [Example 509, N^2,N^2-dimethyl-N^1-{(3aS,4S,6aR)-2-[3-(trifluoromethyl)benzyl]octahydrocyclopenta[c]pyrrol-4-yl}-L-leucinamide] |
| 1.64 | CN[C@@H](CC(C)C)C(=O)N[C@H]1CC[C@H]2CN(Cc3cccc(C(F)(F)F)c3)C[C@H]21 [Example 164, N^2-methyl-N^1-{(3aS,4S,6aR)-2-[3-(trifluoromethyl)benzyl]octahydrocyclopenta[c]pyrrol-4-yl}-L-leucinamide] |
| 6.16 | CC(C)C[C@@H](NS(C)(=O)=O)C(=O)N[C@@H]1CC[C@H]2CN(Cc3cccc(C(F)(F)F)c3)C[C@H]21 [Example 171, N^2-(methylsulfonyl)-N^1-{(3aS,4R,6aR)-2-[3-(trifluoromethyl)benzyl]octahydrocyclopenta[c]pyrrol-4-yl}-D-leucinamide] |
| 0.82 | CC(C)C[C@@H](NC(=O)OC(C)(C)C)C(=O)N[C@H]1CC[C@H]2CN(Cc3cccc(C(F)(F)F)c3)C[C@H]21 (stereo in doubt) [Example 138, N^2-(tert-butyloxycarbonyl)-N^1-{(3aS*,4S*,6aR*)-2-[3-(trifluoromethyl)benzyl]octahydrocyclopenta[c]pyrrol-4-yl}-D-leucinamide] |
| 8.37 | CCC[C@H](NC)C(=O)N[C@H]1CC[C@@H]2CN(S(=O)(=O)c3ccc(C#N)cc3)C[C@@H]21 [Example 536, N^1-{(3aR,4S,6aS)-2-[(4-cyanophenyl)sulfonyl]octahydrocyclopenta[c]pyrrol-4-yl}-N^2-methyl-L-norvalinamide] |
| 0.29 | O=C(N[C@H]1CC[C@H]2CN(Cc3ccc(F)c(C(F)(F)F)c3)C[C@H]21)C(C1CCCCC1)C1CCCCC1 [Example 57, 2,2-dicyclohexyl-N-{(3aS,4S,6aR)-2-[4-fluoro-3-(trifluoromethyl)benzyl]octahydrocyclopenta[c]pyrrol-4-yl}acetamide] |

| Compound | IC50 [µM] |
| --- | --- |
| (3aR,4S,6aS)-N-[(4-chloro-1H-indol-3-yl)methyl]-2-[6-(trifluoromethyl)pyridin-2-yl]octahydrocyclopenta[c]pyrrol-4-amine [Example 692] | 0.99 |
